The NIST ThermoML archive (doi:10.1021/acs.jced.7b00740)
± gives the expanded uncertainty stated by the source.

Tests used:
[1] = refractive index (Na D-line) (dimensionless); conditions: 298.15 K; 101.33 kPa; Liquid; Standard Abbe refractometry
[2] = Liquid; for mass density: 293.15 K, 101.33 kPa, Pycnometric method; for vapor or sublimation pressure: Ebulliometric method (Recirculating still)

refractive index [1] | mass density [2] | vapor or sublimation pressure ([2]; 386.53 K) | vapor or sublimation pressure ([2]; 366.13 K) | vapor or sublimation pressure ([2]; 378 K) | vapor or sublimation pressure ([2]; 390.92 K) | vapor or sublimation pressure ([2]; 351.51 K) | vapor or sublimation pressure ([2]; 370.42 K) | SMILES
1.3757 ± 0.0005 | 841.2 ± 0.7 kg/m3 |  | 101.33 ± 1 kPa |  |  |  |  | CCCOCOC [1-(methoxymethoxy)propane]
1.3971 ± 0.0005 | 809.5 ± 0.7 kg/m3 |  |  |  | 101.33 ± 1 kPa |  |  | CCCCO [butan-1-ol]
1.3595 ± 0.0005 | 789.2 ± 0.7 kg/m3 |  |  |  |  | 101.33 ± 1 kPa |  | CCO [ethanol]
1.3835 ± 0.0005 | 803.6 ± 0.7 kg/m3 |  |  |  |  |  | 101.33 ± 1 kPa | CCCO [propan-1-ol]

The next lines start with the compound.

SMILES | refractive index [1] | mass density [2] | vapor or sublimation pressure ([2]; 386.53 K) | vapor or sublimation pressure ([2]; 366.13 K) | vapor or sublimation pressure ([2]; 378 K) | vapor or sublimation pressure ([2]; 390.92 K) | vapor or sublimation pressure ([2]; 351.51 K) | vapor or sublimation pressure ([2]; 370.42 K)
CCCOCOCC [1-(ethoxymethoxy)propane] | 1.3818 ± 0.0005 | 831.1 ± 0.7 kg/m3 | 101.33 ± 1 kPa |  |  |  |  | 
COCOCOC [2,4,6-trioxaheptane] | 1.379 ± 0.0005 | 958 ± 0.8 kg/m3 |  |  | 101.33 ± 1 kPa |  |  | 
